The source of these data is paper PMC12396409, “Screening and hit evaluation of a microbial metabolite library against the pathogenic Plasmodium falciparum and Toxoplasma gondii parasites” (International Journal for Parasitology: Drugs and Drug …, 2025).

Experiment [1] deals with T. gondii RH strain (RH-Tub-eYFP) tachyzoites. The experiment in a line: microbe, parasite or virus in culture. Format: cell-based, Toxoplasma gondii. Particulars: 72 h, % growth; for Tg_72h_%Growth_Rep1: replicate 1; for Tg_72h_%Growth_Rep2: replicate 2.
The subject of experiment [2] is P. falciparum 3D7 parasites. In words: P. falciparum growth inhibition assay, 2-cycle (120 h treatment), delayed-death screen and dose-response. Format: cell-based, Plasmodium falciparum. The settings on record: for Pf_120h_%Growth_Rep1: replicate 1.
Experiment [3] concerns P. falciparum 3D7 parasites. In words: P. falciparum growth inhibition assay, 1-cycle (72 h treatment), SYBR DNA staining (library screen at 2 μg/mL and dose-response). Format: cell-based, Plasmodium falciparum. The settings on record: P. falciparum 3D7, 72 h, % growth; for Pf_72h_%Growth_Rep1: replicate 1; for Pf_72h_%Growth_Rep2: replicate 2.
[4] abbreviates: T. gondii, parasite screen at 2 μg/mL.
Setting [5] is: P. falciparum 3D7, 120 h, parasite screen at 2 μg/mL, % growth.
Where [6] appears, read: P. falciparum 3D7, 120 h, parasite screen at 2 μg/mL, % growth, replicate 2.
The mark [7] stands for this setting: T. gondii RH, library screen at 2 μg/mL.

Read-outs that look alike come from different tables or passages of the source.

In experiment [1] (setting [4]), `C[C@H]1C(=O)O[C@@H]2CCN3CC=C(COC(=O)[C@](C)(O)[C@]1(C)O)[C@H]23` [BIA-M1801] came in with a Tg_72h_%Growth_Rep1 of 108.79% and a Tg_72h_%Growth_Rep2 of 79.49%. The Pf_120h_%Growth_Rep1 in experiment [2] (setting [5]) was found to be 81.80%. Besides, in experiment [2] (setting [6]), the Pf_120h_%Growth_Rep2 worked out at 104.58%. In experiment [3] (parasite screen at 2 μg/mL), the Pf_72h_%Growth_Rep1 was found to be 85.52% and the Pf_72h_%Growth_Rep2 was 78.69%.
In experiment [1] (setting [7]), `CCCCC(C)C=C(C)C=C(C)C(=O)NC1=CC(O)(C=CC=CC=CC(=O)NC2=C(O)CCC2=O)C2OC2C1=O` (stereo not drawn) [BIA-M1905] registered a Tg_72h_%Growth_Rep1 of 110.20% and a Tg_72h_%Growth_Rep2 of 85.96%. Besides, the Pf_120h_%Growth_Rep1 in experiment [2] (P. falciparum 3D7, 120 h, library screen at 2 μg/mL, % growth) was 83.56%. In experiment [2] (P. falciparum 3D7, 120 h, library screen at 2 μg/mL, % growth, replicate 2), the Pf_120h_%Growth_Rep2 amounted to 90.34%. Also, in experiment [3] (library screen at 2 μg/mL), the Pf_72h_%Growth_Rep1 was 81.84% and the Pf_72h_%Growth_Rep2 worked out at 57.54%.
On to `COc1cc2nccc3c4ccccc4n(c1=O)c23` [BIA-M1940], for which, in experiment [1] (setting [4]), the Tg_72h_%Growth_Rep1 worked out at 156.47% and the Tg_72h_%Growth_Rep2 was 73.09%. This compound displayed a Pf_120h_%Growth_Rep1 in experiment [2] (setting [5]) of 112.19%. For the same compound, in experiment [2] (setting [6]), the Pf_120h_%Growth_Rep2 was determined as 105.38%. In addition, in experiment [3] (parasite screen at 2 μg/mL), the Pf_72h_%Growth_Rep1 was found to be 95.54% and the Pf_72h_%Growth_Rep2 turned out to be 122.74%.
Take `COc1ccc2[nH]c3c(C)c4ccncc4c(C)c3c2c1` [BIA-M1952]: in experiment [1] (setting [4]), the Tg_72h_%Growth_Rep1 stood at 3.28% and the Tg_72h_%Growth_Rep2 is reported as 1.49%. Besides, the Pf_120h_%Growth_Rep2 in experiment [2] was -1.49%. The compound also showed a Pf_120h_%Growth_Rep1 in experiment [2] (setting [5]) of 10.32%. Besides, in experiment [3] (parasite screen at 2 μg/mL), the Pf_72h_%Growth_Rep1 worked out at 9.89% and the Pf_72h_%Growth_Rep2 was -0.96%.
In experiment [1] (setting [4]), `COC1=CC(=O)c2c(n(C)c3occc3c2=O)C1=O` [BIA-M1955] showed a Tg_72h_%Growth_Rep1 of 248.99% and a Tg_72h_%Growth_Rep2 of 112.97%. The Pf_120h_%Growth_Rep1 in experiment [2] (setting [5]) was 53.96%. Moreover, the Pf_120h_%Growth_Rep2 in experiment [2] (setting [6]) was 26.88%. Further, in experiment [3] (parasite screen at 2 μg/mL), the Pf_72h_%Growth_Rep1 stood at 39.08% and the Pf_72h_%Growth_Rep2 is 29.78%.
In experiment [1] (setting [4]), `CSc1cc(=O)n2c3ccccc3c3ccnc1c32` [BIA-M1959] gave a Tg_72h_%Growth_Rep1 of 88.90% and a Tg_72h_%Growth_Rep2 of 111.29%. The compound also gave a Pf_120h_%Growth_Rep1 in experiment [2] (setting [5]) of 177.81%. In addition, the Pf_120h_%Growth_Rep2 in experiment [2] (setting [6]) came to 100.67%. Also, in experiment [3] (parasite screen at 2 μg/mL), the Pf_72h_%Growth_Rep1 was 72.92% and the Pf_72h_%Growth_Rep2 amounted to 92.02%.
In experiment [1] (setting [4]), `COc1ccc2c(c1OC)C[N+]1(C)CCc3cc4c(cc3C1C2)OCO4.[I-]` (stereo not drawn) [BIA-M1962] had a Tg_72h_%Growth_Rep1 of 93.48% and a Tg_72h_%Growth_Rep2 of 106.99%. For the same compound, the Pf_120h_%Growth_Rep1 in experiment [2] (setting [5]) is given as 5.27%. Besides, in experiment [2] (setting [6]), the Pf_120h_%Growth_Rep2 came out at 17.95%. Besides, in experiment [3] (parasite screen at 2 μg/mL), the Pf_72h_%Growth_Rep1 came out at 14.79% and the Pf_72h_%Growth_Rep2 was found to be 27.45%.
As for `COc1oc(C2C/C(=C/C(C)=C/C(C)=C/C(C)=C/c3ccc([N+](=O)[O-])cc3)CO2)c(C)c(=O)c1C` (stereo not drawn) [BIA-N1058], in experiment [1] (setting [4]), the Tg_72h_%Growth_Rep1 was found to be 44.53% and the Tg_72h_%Growth_Rep2 came out at 72.88%. For the same compound, the Pf_120h_%Growth_Rep1 in experiment [2] (setting [5]) turned out to be 17.59%. Also, the Pf_120h_%Growth_Rep2 in experiment [2] (setting [6]) is on record as 18.76%. For the same compound, in experiment [3] (parasite screen at 2 μg/mL), the Pf_72h_%Growth_Rep1 was determined as 9.38% and the Pf_72h_%Growth_Rep2 was determined as 10.75%.
`CC=C(C)c1c(Cl)c(OC)c(C)c2c1Oc1c(Cl)c(O)c(Cl)c(C)c1C(=O)O2` [BIA-N1157]: in experiment [1] (setting [4]), the Tg_72h_%Growth_Rep1 turned out to be 96.79% and the Tg_72h_%Growth_Rep2 was determined as 78.56%. In experiment [2] (setting [5]), the Pf_120h_%Growth_Rep1 is 89.90%. Also, in experiment [2] (setting [6]), the Pf_120h_%Growth_Rep2 worked out at 141.00%. In addition, in experiment [3] (parasite screen at 2 μg/mL), the Pf_72h_%Growth_Rep1 came to 86.70% and the Pf_72h_%Growth_Rep2 was 91.20%.
Consider `CC=C(C)c1c(Cl)c(O)c(C)c2c1Oc1c(Cl)c(O)c(Cl)c(C)c1C(=O)O2` [BIA-N1159], for which, in experiment [1] (setting [4]), the Tg_72h_%Growth_Rep1 is reported as 86.78% and the Tg_72h_%Growth_Rep2 came out at 84.63%. This compound registered a Pf_120h_%Growth_Rep1 in experiment [2] (setting [5]) of 97.37%. Also, in experiment [2] (setting [6]), the Pf_120h_%Growth_Rep2 came to 135.76%. In addition, in experiment [3] (parasite screen at 2 μg/mL), the Pf_72h_%Growth_Rep1 amounted to 85.21% and the Pf_72h_%Growth_Rep2 is 97.34%.
